These results are taken from PMC11728001, “Design, Synthesis, and Biological Evaluation of Novel Urea-Containing Carnosic Acid Derivatives with Anticancer Activity” (International Journal of Molecular Sciences, 2024).

Read-outs that look alike come from different tables or passages of the source.

The term IC50 denotes the concentration at which inhibition is half-maximal.

Assay [1] deals with HCT116 colorectal cancer cell line. Kind of assay: MTT cell viability assay, HCT116. The assay is classed as cell-based. The settings on record: Homo sapiens, HCT-116, 72 h incubation, mean ± SD. On the procedure:
The antiproliferative activity of CA 1 and its derivatives was evaluated against a colorectal cancer (CRC) cell line (HCT116) using the MTT assay. The anticancer drug cisplatin was used as the reference drug.
(§1) The effect of the compounds on cell viability was evaluated using the MTT assay. HCT116 (3000 cells/well), SW620 (8000 cells/well), SW480 (6000 cells/well), Caco-2 (4000 cells/well), A375 (1500 cells/well), MiaPaca-2 (2000 cells/well), and BJ (10,000 cells/well) cells were seeded in 96-well plates. After 24 h, the growth medium was replaced with a fresh medium containing the desired concentration of the compound or DMSO (control). After 72 h of incubation, the supernatant was removed and 100 µL of a mixture (1:1) of filtered MTT solution (1 mg/mL in PBS) with FBS-free medium was added to each well. After 1 h of incubation at 37 °C, the mixture was removed and 100 µL of DMSO was added to each well to dissolve the formed formazan crystals. Absorbance was immediately measured at 570 nm using a Benchmark Plus Microplate Reader (Bio-Rad Laboratories, Hercules, CA, USA). IC50 values were calculated using GraphPad Prism 9 software (GraphPad Software, San Diego, CA, USA) and expressed as the mean ± standard deviation (SD) of at least three independent experiments.
In general terms: Tetrazolium assays rely on reduction of a dye to a coloured formazan, in cell work by metabolically active cells.

For assay [2], the system named is A375 melanoma cells. Kind of assay: MTT cell viability assay, A375. The assay is classed as cell-based. The following applies: Homo sapiens, A-375, 72 h incubation, mean ± SD. How it is done: as §1
Another assay has as its system Caco-2 cells. Kind of assay: MTT cell viability assay, Caco-2. The assay is classed as cell-based. The settings on record: Homo sapiens, 72 h incubation, mean ± SD. How it is done:
as §1

Assay [3] concerns MiaPaca-2 pancreatic cancer cells. Kind of assay: MTT cell viability assay, MiaPaca-2. The assay is classed as cell-based. The following applies: Homo sapiens, MIA PaCa-2, 72 h incubation, mean ± SD. On the procedure: as §1
Another assay concerns SW480 cells. Kind of assay: MTT cell viability assay, SW480. The following applies: Homo sapiens, 72 h incubation, mean ± SD. The assay is classed as cell-based. How it is done: as §1
The test system of assay [4] is SW620 cells. Kind of assay: MTT cell viability assay, SW620. The assay is classed as cell-based. The settings on record: Homo sapiens, SW-620, 72 h incubation, mean ± SD. On the procedure:
as §1

For assay [5], the system named is SW620 cells. More on the design: method as in PMID 31909511. The settings on record: obtained previously by the research group, same methodology; cited from earlier work.
Assay [6] concerns BJ non-tumoral fibroblast cell line. More on the design: method as in PMID 41058673. The settings on record: obtained previously by the research group, same methodology; cited from earlier work.
Assay [7] concerns A375 melanoma cells. More on the design: method as in PMID 23229057. The following applies: from literature, same methodology; cited from earlier work.
The subject of assay [8] is MiaPaca-2 pancreatic cancer cells. More on the design: method as in PMID 18007390. The settings on record: from literature, same methodology; cited from earlier work.
Assay [9] relates to HCT116 colorectal cancer cell line. More on the design: method as in PMID 29922789. The following applies: MTT, 72 h; obtained previously by the research group, same methodology; cited from earlier work.

In assay [1], `CC(=O)Oc1c(C(C)C)cc2c(c1OC(C)=O)[C@@]1(N=C=O)CCCC(C)(C)[C@@H]1CC2` [Compound 5, (4bR, 8aS)-4b-Isocyanato-2-isopropyl-8,8-dimethyl-4b,5,6,7,8,8a,9,10-octahydrophenanthrene-3,4-diyl diacetate] yielded an IC50 of 28 ± 3 µM.
On the same count and under the same terms, the figure for `CC(=O)Oc1c(C(C)C)cc2c(c1OC(C)=O)[C@@]1(NC(=O)NCC3(C)COC3)CCCC(C)(C)[C@@H]1CC2` [Compound 20, (4bR,8aS)-2-isopropyl-8,8-dimethyl-4b-(3-((3-methyloxetan-3-yl)methyl)ureido)-4b,5,6,7,8,8a,9,10-octahydrophenanthrene-3,4-diyl diacetate] is 46 ± 2 µM; for `CCCNC(=O)N[C@]12CCCC(C)(C)[C@@H]1CCc1cc(C(C)C)c(OC(C)=O)c(OC(C)=O)c12` [Compound 8, (4bR,8aS)-2-isopropyl-8,8-dimethyl-4b-(3-propylureido)-4b,5,6,7,8,8a,9,10-octahydrophenanthrene-3,4-diyl diacetate] it is 31 ± 1 µM.
For the molecule `CC(=O)Oc1c(C(C)C)cc2c(c1OC(C)=O)[C@@]1(NC(=O)NCCCN(C)c3ccccc3)CCCC(C)(C)[C@@H]1CC2` [Compound 16, (4bR,8aS)-2-isopropyl-8,8-dimethyl-4b-(3-(3-(methyl(phenyl)amino)propyl)ureido)-4b,5,6,7,8,8a,9,10-octahydrophenanthrene-3,4-diyl diacetate], the IC50 with A375 melanoma cells [2] was determined as 7.6 ± 0.6 µM; in the assay with Caco-2 cells, 9.6 ± 0.6 µM; in assay [3] it was 9.3 ± 0.4 µM; in assay [1] it was 12 ± 0.5 µM; in the assay with SW480 cells, 7.6 ± 0.6 µM; in the assay on SW620 cells [4] it was 6.4 ± 0.4 µM.
Turning to `CC(C)c1cc2c(c(O)c1O)[C@@]1(C(=O)O)CCCC(C)(C)[C@@H]1CC2` [CA 1, Carnosic acid], the IC50 with A375 melanoma cells [2] was found to be 27.6 ± 0.5 µM; with Caco-2 cells it was 34 ± 2 µM; in assay [3], 21 ± 2 µM; in assay [1], 42 ± 4 µM; in the assay on SW480 cells, 21.8 ± 0.7 µM; in the assay with SW620 cells [4], 18 ± 2 µM.
`CC(=O)Oc1c(C(C)C)cc2c(c1OC(C)=O)[C@@]1(NC(=O)NCc3ccoc3)CCCC(C)(C)[C@@H]1CC2` [Compound 17, (4bR,8aS)-4b-(3-(furan-3-ylmethyl)ureido)-2-isopropyl-8,8-dimethyl-4b,5,6,7,8,8a,9,10-octahydrophenanthrene-3,4-diyl diacetate] gave an IC50 in [1] of 21 ± 2 µM.
In the case of `CC(=O)Oc1c(C(C)C)cc2c(c1OC(C)=O)[C@@]1(C(=O)O)CCCC(C)(C)[C@@H]1CC2` [Compound 2, (4aR,10aS)-5,6-Diacetoxy-7-isopropyl-1,1-dimethyl-1,3,4,9,10,10a-hexahydrophenanthrene-4a(2H)-carboxylic acid], the IC50 in [1] turned out to be 44 ± 4 µM.
The same measure, in the same setting: the figure for `CNC(=O)N[C@]12CCCC(C)(C)[C@@H]1CCc1cc(C(C)C)c(OC(C)=O)c(OC(C)=O)c12` [Compound 6, (4bR,8aS)-2-isopropyl-8,8-dimethyl-4b-(3-methylureido)-4b,5,6,7,8,8a,9,10-octahydrophenanthrene-3,4-diyl diacetate] is 55 ± 5 µM.
With `CC(=O)Oc1c(C(C)C)cc2c(c1OC(C)=O)[C@@]1(NC(=O)NCCc3ccccc3)CCCC(C)(C)[C@@H]1CC2` [Compound 13, (4bR,8aS)-2-isopropyl-8,8-dimethyl-4b-(3-phenethylureido)-4b,5,6,7,8,8a,9,10-octahydrophenanthrene-3,4-diyl diacetate], the IC50 with Caco-2 cells was 10.9 ± 0.6 µM; in [1] it was 14 ± 2 µM; in the assay with SW480 cells it was 8.6 ± 0.3 µM; with SW620 cells [4], 9 ± 1 µM.
For the molecule `CC(=O)Oc1c(C(C)C)cc2c(c1OC(C)=O)[C@@]1(NC(=O)NCC3CCOCC3)CCCC(C)(C)[C@@H]1CC2` [Compound 18, (4bR,8aS)-2-isopropyl-8,8-dimethyl-4b-(3-((tetrahydro-2H-pyran-4-yl)methyl)ureido)-4b,5,6,7,8,8a,9,10-octahydrophenanthrene-3,4-diyl diacetate], in [1], the IC50 came out at 51 ± 5 µM.
Still for that read-out and setting: the figure for `CC(=O)Oc1c(C(C)C)cc2c(c1OC(C)=O)[C@@]1(NC(=O)NCc3ccncc3)CCCC(C)(C)[C@@H]1CC2` [Compound 15, (4bR,8aS)-2-isopropyl-8,8-dimethyl-4b-(3-(pyridin-4-ylmethyl)ureido)-4b,5,6,7,8,8a,9,10-octahydrophenanthrene-3,4-diyl diacetate] is 33 ± 2 µM; for `CCNC(=O)N[C@]12CCCC(C)(C)[C@@H]1CCc1cc(C(C)C)c(OC(C)=O)c(OC(C)=O)c12` [Compound 7, (4bR,8aS)-4b-(3-Ethylureido)-2-isopropyl-8,8-dimethyl-4b,5,6,7,8,8a,9,10-octahydrophenanthrene-3,4-diyl diacetate] it is 44 ± 4 µM.
The same measure, in the same setting: under `CCCCN(C)C(=O)N[C@]12CCCC(C)(C)[C@@H]1CCc1cc(C(C)C)c(OC(C)=O)c(OC(C)=O)c12` [Compound 9, (4bR,8aS)-4b-(3-butyl-3-methylureido)-2-isopropyl-8,8-dimethyl-4b,5,6,7,8,8a,9,10-octahydrophenanthrene-3,4-diyl diacetate] stands 22 ± 1 µM; under `CC(=O)Oc1c(C(C)C)cc2c(c1OC(C)=O)[C@@]1(NC(=O)NCC(C)(C)CN(C)C)CCCC(C)(C)[C@@H]1CC2` [Compound 11, (4bR,8aS)-4b-(3-(3-(dimethylamino)-2,2-dimethylpropyl)ureido)-2-isopropyl-8,8-dimethyl-4b,5,6,7,8,8a,9,10-octahydrophenanthrene-3,4-diyl diacetate], 30 ± 1 µM.
On to `N.N.[Cl][Pt][Cl]` [Cisplatin, cisplatin], for which the IC50 in the assay on SW620 cells [5] is 1.4 ± 0.5 µM; in assay [6], 10 ± 2 µM; in the assay with A375 melanoma cells [7] it was 3 ± 1 µM; in assay [8] it was 5 ± 1 µM; in assay [9], 21 ± 1 µM.
Regarding `CONC(=O)N[C@]12CCCC(C)(C)[C@@H]1CCc1cc(C(C)C)c(OC(C)=O)c(OC(C)=O)c12` [Compound 12, (4bR,8aS)-2-isopropyl-4b-(3-methoxyureido)-8,8-dimethyl-4b,5,6,7,8,8a,9,10-octahydrophenanthrene-3,4-diyl diacetate], the IC50 in assay [1] came out at 41 ± 3 µM.
The same measure, in the same setting: under `CC(=O)Oc1c(C(C)C)cc2c(c1OC(C)=O)[C@@]1(NC(=O)NC3COC3)CCCC(C)(C)[C@@H]1CC2` [Compound 19, (4bR,8aS)-2-isopropyl-8,8-dimethyl-4b-(3-(oxetan-3-yl)ureido)-4b,5,6,7,8,8a,9,10-octahydrophenanthrene-3,4-diyl diacetate] stands above 60 µM; under `CC(=O)Oc1c(C(C)C)cc2c(c1OC(C)=O)[C@@]1(NC(=O)NCC(C)C)CCCC(C)(C)[C@@H]1CC2` [Compound 10, (4bR,8aS)-4b-(3-isobutylureido)-2-isopropyl-8,8-dimethyl-4b,5,6,7,8,8a,9,10-octahydrophenanthrene-3,4-diyl diacetate], 22 ± 2 µM.
